PubChem BioAssay (NCI)
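Cultured in 96-well plates, cells were exposed to test compound for 48 hours across five concentrations. GI50: concentration for 50% inhibition of growth. TGI is the concentration that stops growth completely.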

Assays:
Assay in all cases: DTP human tumour cell line panel, 48 h
OVCAR-5 ovarian = system: OVCAR-5 ovarian
CCRF-CEM leukemia = system: CCRF-CEM leukemia
MDA-MB-231 breast = system: MDA-MB-231 breast
SR leukemia = system: SR leukemia
KM12 colon = system: KM12 colon
NCI/ADR-RES ovarian = system: NCI/ADR-RES ovarian
COLO 205 colon = system: COLO 205 colon
TK-10 renal = system: TK-10 renal
IGROV1 ovarian = system: IGROV1 ovarian
HL-60(TB) leukemia = system: HL-60(TB) leukemia
U251 CNS = system: U251 CNS
RXF 393 renal = system: RXF 393 renal
SW-620 colon = system: SW-620 colon
SK-OV-3 ovarian = system: SK-OV-3 ovarian
SK-MEL-2 melanoma = system: SK-MEL-2 melanoma
BT-549 breast = system: BT-549 breast
HOP-62 NSCLC = system: HOP-62 NSCLC
A498 renal = system: A498 renal
SF-539 CNS = system: SF-539 CNS
DU-145 prostate = system: DU-145 prostate
UACC-257 melanoma = system: UACC-257 melanoma
OVCAR-3 ovarian = system: OVCAR-3 ovarian
786-0 renal = system: 786-0 renal
MOLT-4 leukemia = system: MOLT-4 leukemia
PC-3 prostate = system: PC-3 prostate
RPMI-8226 leukemia = system: RPMI-8226 leukemia
NCI-H460 lung = system: NCI-H460 lung
NCI-H522 lung = system: NCI-H522 lung
HCT-116 colon = system: HCT-116 colon
LOX IMVI melanoma = system: LOX IMVI melanoma
UACC-62 melanoma = system: UACC-62 melanoma
SNB-19 CNS = system: SNB-19 CNS
ACHN renal = system: ACHN renal
MDA-MB-435 = system: MDA-MB-435
CAKI-1 renal = system: CAKI-1 renal
HCC-2998 colon = system: HCC-2998 colon
HCT-15 colon = system: HCT-15 colon
MCF7 breast = system: MCF7 breast
HOP-92 NSCLC = system: HOP-92 NSCLC
SK-MEL-5 melanoma = system: SK-MEL-5 melanoma
M14 melanoma = system: M14 melanoma
SK-MEL-28 melanoma = system: SK-MEL-28 melanoma
UO-31 renal = system: UO-31 renal
K-562 leukemia = system: K-562 leukemia
SN12C renal = system: SN12C renal
NCI-H23 lung = system: NCI-H23 lung
A549 NSCLC = system: A549 NSCLC
EKVX NSCLC = system: EKVX NSCLC
OVCAR-8 ovarian = system: OVCAR-8 ovarian
SF-268 CNS = system: SF-268 CNS
NCI-H226 lung = system: NCI-H226 lung
HS 578T breast = system: HS 578T breast

COc1ccc(C2=CSc3cc(Cl)c(C)cc3S(=O)(=O)N2C(C)=O)cc1
GI50 (OVCAR-5 ovarian): 52.7 µM
TGI (OVCAR-5 ovarian): > 100 µM
GI50 (CCRF-CEM leukemia): 38.6 µM
TGI (CCRF-CEM leukemia): > 100 µM
GI50 (MDA-MB-231 breast): 14.5 µM
TGI (MDA-MB-231 breast): 37.9 µM
GI50 (SR leukemia): 14.6 µM
TGI (SR leukemia): > 100 µM
GI50 (KM12 colon): 23.1 µM
TGI (KM12 colon): 92.2 µM
GI50 (NCI/ADR-RES ovarian): 26.8 µM
TGI (NCI/ADR-RES ovarian): 66.7 µM
GI50 (COLO 205 colon): 38.5 µM
TGI (COLO 205 colon): > 100 µM
GI50 (TK-10 renal): 17.8 µM
TGI (TK-10 renal): 46.7 µM
GI50 (IGROV1 ovarian): 36.2 µM
TGI (IGROV1 ovarian): > 100 µM
GI50 (HL-60(TB) leukemia): 17.2 µM
TGI (HL-60(TB) leukemia): 43.7 µM
GI50 (U251 CNS): 21.2 µM
TGI (U251 CNS): 55.8 µM
GI50 (RXF 393 renal): 35.6 µM
TGI (RXF 393 renal): > 100 µM
GI50 (SW-620 colon): 38.7 µM
TGI (SW-620 colon): > 100 µM
GI50 (SK-OV-3 ovarian): 60.6 µM
TGI (SK-OV-3 ovarian): > 100 µM
GI50 (SK-MEL-2 melanoma): 63.4 µM
TGI (SK-MEL-2 melanoma): > 100 µM
GI50 (BT-549 breast): 29.9 µM
TGI (BT-549 breast): > 100 µM
GI50 (HOP-62 NSCLC): 47.2 µM
TGI (HOP-62 NSCLC): > 100 µM
GI50 (A498 renal): 59.5 µM
TGI (A498 renal): > 100 µM
GI50 (SF-539 CNS): 33 µM
TGI (SF-539 CNS): 78.6 µM
GI50 (DU-145 prostate): 38.4 µM
TGI (DU-145 prostate): > 100 µM
GI50 (UACC-257 melanoma): 36.2 µM
TGI (UACC-257 melanoma): > 100 µM
GI50 (OVCAR-3 ovarian): 15.8 µM
TGI (OVCAR-3 ovarian): 41.4 µM
GI50 (786-0 renal): 39.1 µM
TGI (786-0 renal): > 100 µM
GI50 (MOLT-4 leukemia): 2.13 µM
TGI (MOLT-4 leukemia): > 100 µM
GI50 (PC-3 prostate): 21.8 µM
TGI (PC-3 prostate): 82.1 µM
GI50 (RPMI-8226 leukemia): 26 µM
TGI (RPMI-8226 leukemia): 94 µM
GI50 (NCI-H460 lung): 29 µM
TGI (NCI-H460 lung): 99.5 µM
GI50 (NCI-H522 lung): 53.9 µM
TGI (NCI-H522 lung): > 100 µM
GI50 (HCT-116 colon): 21.3 µM
TGI (HCT-116 colon): 52.5 µM
GI50 (LOX IMVI melanoma): 21 µM
TGI (LOX IMVI melanoma): > 100 µM
GI50 (UACC-62 melanoma): 13.1 µM
TGI (UACC-62 melanoma): 48 µM
GI50 (SNB-19 CNS): 36.3 µM
TGI (SNB-19 CNS): > 100 µM
GI50 (ACHN renal): 18.8 µM
TGI (ACHN renal): 43.7 µM
GI50 (MDA-MB-435): 28.6 µM
TGI (MDA-MB-435): 87.8 µM
GI50 (CAKI-1 renal): 11.5 µM
TGI (CAKI-1 renal): 32.9 µM
GI50 (HCC-2998 colon): 27.1 µM
TGI (HCC-2998 colon): 69.5 µM
GI50 (HCT-15 colon): 24.6 µM
TGI (HCT-15 colon): 88.5 µM
GI50 (MCF7 breast): 46.2 µM
TGI (MCF7 breast): > 100 µM
GI50 (HOP-92 NSCLC): 21.9 µM
TGI (HOP-92 NSCLC): > 100 µM
GI50 (SK-MEL-5 melanoma): 19.9 µM
TGI (SK-MEL-5 melanoma): 48.5 µM
GI50 (M14 melanoma): 49.1 µM
TGI (M14 melanoma): > 100 µM
GI50 (SK-MEL-28 melanoma): 56 µM
TGI (SK-MEL-28 melanoma): > 100 µM
GI50 (UO-31 renal): 51.2 µM
TGI (UO-31 renal): > 100 µM
GI50 (K-562 leukemia): 27.8 µM
TGI (K-562 leukemia): > 100 µM
GI50 (SN12C renal): 13.7 µM
TGI (SN12C renal): 41.7 µM
GI50 (NCI-H23 lung): 36.4 µM
TGI (NCI-H23 lung): > 100 µM
GI50 (A549 NSCLC): 27.4 µM
TGI (A549 NSCLC): 65 µM
GI50 (EKVX NSCLC): 38.2 µM
TGI (EKVX NSCLC): > 100 µM
GI50 (OVCAR-8 ovarian): 33.8 µM
TGI (OVCAR-8 ovarian): > 100 µM
GI50 (SF-268 CNS): 29.1 µM
TGI (SF-268 CNS): > 100 µM
GI50 (NCI-H226 lung): 15.2 µM
TGI (NCI-H226 lung): 60 µM
GI50 (HS 578T breast): 55.2 µM
TGI (HS 578T breast): > 100 µM
